Here are results for 14 compounds from ChEMBL document CHEMBL3875144, “Novel fluorinated pyrrolomycins as potent anti-staphylococcal biofilm agents: Design, synthesis, pharmacokinetics and antibacterial activities” (Eur J Med Chem, 2016).

Molecules are shown by their SMILES. Values after ≈ are worked out from the molar mass of the structure shown. Active and inactive are the calls of the source.

Data set [1] in a line: Bactericidal activity against methicillin-resistant Staphylococcus aureus USA300 JE2 incubated up to 24 hrs. The settings on record: JE2, 24 h. Type of data set: functional, Staphylococcus aureus subsp. aureus USA300.
For data set [2], the system named is Staphylococcus aureus subsp. aureus USA300. Put plainly: Antibiofilm activity against methicillin-resistant Staphylococcus aureus USA300 JE2 at 32 ug/ml measured at 24 hrs post dose relative to control. The class given is functional.
The nature of data set [3]: Antibacterial activity against methicillin-resistant Staphylococcus aureus USA300 JE2 incubated for 20 to 24 hrs by broth microdilution assay. Type of data set: functional, Staphylococcus aureus subsp. aureus USA300.
The test system of data set [4] is Staphylococcus aureus subsp. aureus USA300. The data set can be described thus: Antibiofilm activity against methicillin-resistant Staphylococcus aureus USA300 JE2 at 32 ug/ml measured at 48 hrs post dose relative to control. The class given is functional.
Data set [5] is described as follows: Cytotoxicity against human HeLa cells assessed as decrease in cell viability measured after 24 hrs by MTS assay. The class given is toxicity, cell-based.
The nature of data set [6]: Selectivity index, ratio of IC50 for cytotoxicity against human HeLa cells to MIC for antibacterial activity against methicillin-resistant Staphylococcus aureus USA300 JE2. The note with it: read-out: Selectivity Index. Type of data set: toxicity, cell-based.
Data set [7] deals with Staphylococcus aureus subsp. aureus USA300. The data set can be described thus: Bactericidal activity against methicillin-resistant Staphylococcus aureus USA300 JE2 at 8 ug/ml incubated up to 24 hrs relative to control. Type of data set: functional.
The test system is the same in data set [8]. Put plainly: Antibiofilm activity against methicillin-resistant Staphylococcus aureus USA300 JE2 assessed as disruption of preformed biofilms at 8 ug/ml within 5 days. The class given is functional.
A short description of data set [9]: Tmax in Balc/c mouse at 10 mg/kg administered via oral gavage by LC-MS/MS method. The class given is ADME, organism-based. The settings on record: in vivo.
In data set [10] the test system is Staphylococcus aureus subsp. aureus USA300. The data set can be described thus: Antibiofilm activity against methicillin-resistant Staphylococcus aureus USA300 JE2 at 8 ug/ml measured at 48 hrs post dose relative to control. Type of data set: functional.
The nature of data set [11]: Plasma concentration in Balc/c mouse at 1 mg/kg, iv up to 72 hrs by LC-MS/MS method. The class given is ADME, organism-based.
Data set [12] can be described thus: Plasma concentration in Balc/c mouse at 10 mg/kg administered via oral gavage up to 72 hrs by LC-MS/MS method. The class given is ADME, organism-based.
In data set [13] the test system is Staphylococcus aureus subsp. aureus USA300. The data set can be described thus: Antibiofilm activity against methicillin-resistant Staphylococcus aureus USA300 JE2 at 8 ug/ml measured at 24 hrs post dose relative to control. Type of data set: functional.

Regarding `CN[C@H](CC(C)C)C(=O)N[C@H]1C(=O)N[C@@H](CC(N)=O)C(=O)N[C@H]2C(=O)N[C@H]3C(=O)N[C@H](C(=O)N[C@H](C(=O)O)c4cc(O)cc(O)c4-c4cc3ccc4O)[C@H](O)c3ccc(c(Cl)c3)Oc3cc2cc(c3O[C@@H]2O[C@H](CO)[C@@H](O)[C@H](O)[C@H]2O[C@H]2C[C@](C)(N)[C@H](O)[C@H](C)O2)Oc2ccc(cc2Cl)[C@H]1O` [VANCOMYCIN], the MBC (in general, the smallest concentration meeting the test's criterion for killing) in data set [1] came to 8 µg/mL (≈ 5.52 µM). The Activity in [2] came out at 11%; in data set [4] it was 39%. Besides, 2 µg/mL (≈ 1.38 µM) was the least that counted as inhibitory in data set [3] (MIC).

`Cn1c(Br)c(Br)c(Br)c1C(=O)c1cc(F)cc(F)c1O`: the MIC (usually the smallest concentration in the dilution series that meets the test's criterion for growth inhibition) in data set [3] is more than 4 µg/mL.

For the compound `O=C(c1cc(Br)c(Br)[nH]1)c1cc(Cl)cc(Cl)c1O`, the IC50 (commonly the midpoint of a concentration-inhibition curve) at 24 h in data set [5] is more than 41.4 µM. The MBC in [1] is 8 µg/mL (≈ 19.3 µM). For the same compound, the selectivity ratio in data set [6] was more than 567. In data set [7], this compound showed an Activity of 92.5%. The same compound had an MIC in [3] of 0.073 µg/mL (≈ 0.176 µM).

For `O=C(c1cc(F)cc(F)c1O)c1[nH]c(Br)c(Br)c1Br`, in [5], the concentration for half-maximal inhibition (IC50) at 24 h was more than 46 µM. Moreover, the selectivity ratio in data set [6] is more than 275. This compound also returned an MIC in data set [3] of 0.17 µg/mL (≈ 0.37 µM).

`O=C(c1ccc[nH]1)c1cc(Cl)cc(Cl)c1O`: in [3], the MIC was more than 4 µg/mL.

On to `O=C(c1ccccc1O)c1[nH]c(Cl)c(Cl)c1-n1c(C(=O)c2cc(F)ccc2O)cc(Cl)c1Cl`, for which the IC50 at 24 h in data set [5] was more than 52.8 µM. In data set [6], the selectivity ratio is more than 280. The lowest concentration to inhibit growth in data set [3] (MIC) was 0.19 µg/mL (≈ 0.36 µM).

As for `COc1c(F)cc(F)cc1C(=O)c1ccc[nH]1`, the MIC in [3] is more than 4 µg/mL.

In the case of `O=C(c1ccccc1O)c1[nH]c(Cl)c(Cl)c1-n1c(C(=O)c2ccc(Cl)cc2O)cc(Cl)c1Cl`, the IC50 at 24 h in data set [5] is more than 40.9 µM. Further, in data set [6], the selectivity ratio is more than 524. The compound further registered an MIC in [3] of 0.078 µg/mL (≈ 0.143 µM).

The compound `O=C(c1ccc[nH]1)c1cc(F)cc(F)c1O` had an MIC in data set [3] of more than 4 µg/mL.

As for `O=C(c1cc(Br)c(F)[nH]1)c1cc(Cl)cc(Cl)c1O`, the IC50 at 24 h in [5] was more than 35.3 µM. For the same compound, in [1], the MBC was determined as 4 µg/mL (≈ 11.3 µM). Besides, in [6], the selectivity ratio was more than 484. Moreover, the result in data set [8] was Active. For the same compound, in data set [9], the Tmax (usually the time from dosing to the highest level) was 15 min. Further, the Activity in data set [10] came to 97%; in data set [13], 84%. Besides, the concentration at 72 h in data set [11] and in data set [12] was not below 0.8 ng/mL throughout. Also, the MIC in data set [3] came out at 0.073 µg/mL (≈ 0.207 µM).

With `O=C(c1cc(Cl)cc(Cl)c1O)c1[nH]c(F)c(Br)c1Br`, the IC50 at 24 h in data set [5] was more than 43.2 µM. Moreover, in data set [6], the selectivity ratio was more than 229. The compound also had an MIC in data set [3] of 0.19 µg/mL (≈ 0.44 µM).

The compound `COc1c(F)cc(F)cc1C(=O)c1[nH]c(Br)c(Br)c1Br` registered an MIC in [3] of 3 µg/mL (≈ 6.33 µM).

Regarding `COc1c(F)cc(F)cc1C(=O)c1c(Br)c(Br)c(Br)n1C`, the MIC in [3] was more than 4 µg/mL.

In data set [3], `O=C(c1cc(Br)c[nH]1)c1cc(Cl)cc(Cl)c1O` had a minimum inhibitory concentration (MIC) of more than 4 µg/mL.
